One substance from US12016870B2, “Agents for use in the treatment of cardiac arrhythmia” (priority 2018, dated 2024) can be followed below.

In series [1] the test system is multi-junction preparations (branched tissue architecture) of rat cardiomyocytes. In words: Conduction velocity in branched (multi-junction) cardiomyocyte preparations, model of discontinuous conduction. It counts as cell-based. Conditions: 10 nmol/L Gb3 for 24 hrs. As for the experimental part:
Impulse propagation along the patterned preparations was followed optically using a fast voltage-sensitive dye (Rohr et al., 1994, Biophys J., 67(3):1301-1315). In short, the preparations were stained for 3 to 4 minutes with 1 mL of the superfusion solution containing […] of the voltage-sensitive dye di-8-ANEPPS (Molecular Probes). The dye was excited by a short-arc xenon lamp driven by a low-ripple power supply (Optiquip). The light was, after passing a shutter (VS25S21 MO, Vincent Assoc), short-pass filtered (570 EFSP, Omega) and deflected toward the objective by means of a dichroic mirror (575 nm; Omega). Emitted fluorescence from the preparation was long-pass filtered (590 nm, Omega) and projected onto a 2-dimensional array of 379 optical fibers, which formed a hexagonal array (Rohr et al., 1998, Biophys J., 75(2):1062-1075). From the entire array, ≤80 fibers were selected according to the shape of a given preparation and were connected to individual photodiodes. […] Experiments were performed with a 20×, 0.75 numerical aperture (NA) objective (each detector monitored a circular area with a diameter of 50 um corresponding to 4 to 10 cells contributing to the signal) permitting assessment of activation along the preparations for distances up to 1 mm. […]
The raw data were analyzed by programming routines written in Interactive Data Language (IDL; Creaso). […]

Series [2] has as its system tissue engineered strands of rat ventricular cardiomyocytes. In words: Conduction velocity along linear tissue engineered cardiomyocyte strands, optical recording with di-8-ANEPPS. Format: cell-based. Conditions: for Conduction velocity (CV) along strands of cardiomyocytes: mean+/-SD. As to the method: The effects of Gb3 on impulse propagation characteristics were investigated in tissue engineered strands of rat ventricular cardiomyocytes where impulse propagation was recorded using the voltage sensitive dye di-8-ANEPPS as described below.
Impulse propagation along the patterned preparations was followed optically using a fast voltage-sensitive dye (Rohr et al., 1994, Biophys J., 67(3):1301-1315). In short, the preparations were stained for 3 to 4 minutes with 1 mL of the superfusion solution containing […] of the voltage-sensitive dye di-8-ANEPPS (Molecular Probes). The dye was excited by a short-arc xenon lamp driven by a low-ripple power supply (Optiquip). The light was, after passing a shutter (VS25S21 MO, Vincent Assoc), short-pass filtered (570 EFSP, Omega) and deflected toward the objective by means of a dichroic mirror (575 nm; Omega). Emitted fluorescence from the preparation was long-pass filtered (590 nm, Omega) and projected onto a 2-dimensional array of 379 optical fibers, which formed a hexagonal array (Rohr et al., 1998, Biophys J., 75(2):1062-1075). From the entire array, ≤80 fibers were selected according to the shape of a given preparation and were connected to individual photodiodes. The resulting photocurrents were converted to voltages and amplified (typical overall gain of 2.5×10^9 V/A f0=1.6 kHz). The conditioned signals were simultaneously sampled at 20 kHz/channel by a computer-based data acquisition system. Experiments were performed with a 20×, 0.75 numerical aperture (NA) objective (each detector monitored a circular area with a diameter of 50 um corresponding to 4 to 10 cells contributing to the signal) permitting assessment of activation along the preparations for distances up to 1 mm.
After mounting the preparations in the experimental chamber, control superfusion was started (Hanks' balanced salt solution (HBSS), containing (mmol/L) NaCl 137, KCl 5.4, CaCl2 1.3, MgSO4 0.8, NaHCO3 4.2, KH2PO4 0.5, NaH2PO4 0.3, and HEPES 10, which was titrated to pH 7.40 with NaOH). The preparations were stimulated with bipolar electrodes consisting of glass micropipettes (filling, HBSS with 1% agar) and a silver wire coiled around the shank of the electrode. The electrodes were attached to micromanipulators (DC-3K, Marzhauser) and placed at a sufficient distance from the measurement site (1 mm) to (1) avoid electronically mediated stimulation artifacts to distort the signal of interest and (2) permit propagation to reach steady-state conditions at the site of the measurement. Rectangular impulses (duration, 1 ms; 2-3 times threshold intensity) were delivered to the preparations at a basic cycle length of 500 ms by a stimulator (SD9, Grass Instruments) for at least 10 seconds before a given optical recording. All experiments were performed at a temperature of 36+/−0.4° C.
The raw data were analyzed by programming routines written in Interactive Data Language (IDL; Creaso). The data processing typically involved manual selection of the upstroke portions of the action potentials to omit any signal distortion due to motion artifacts occurring several milliseconds after the upstrokes. The data were digitally low-pass filtered and signal amplitudes obtained under control conditions were set to 100%.
While control preparations conducted action potentials (APs) at a speed of 321.8±20.9 mm/sec (N=15), CVs in strands incubated with 10 nM Gb3 were increased by over 20% to 390.2±21.3 mm/sec (N=6, p<0.0001 versus control).

On to globotriaosylceramide [Gb3], for which the “Increase in CV in branched preparations treated with Gb3” value in series [1] (versus control branched preparations) was around 67%. Besides, the “CV in multi-junction preparations as % of linear strands” value in series [1] (N=25, normalized to linear strands grown in parallel (control multi-junction 57.4±6.7%)) was 84.7±2.3%. In addition, in series [2] (10 nM Gb3, 24 hours exposure), the “Increase of CV versus control” value was “over 20%”. The “Conduction velocity (CV) along strands of cardiomyocytes” value stood at 390.2±21.3 mm/sec in series [2] (10 nM Gb3, 24 hours exposure, N=6, p<0.0001 versus control (control 321.8±20.9 mm/sec)); 358.8±20.3 mm/sec in series [2] (100 nM Gb3, 24 hours exposure, p<0.005 vs control); 338.4±27.3 mm/sec in series [2] (1 μM Gb3, 24 hours exposure, p=0.3 vs control). For the same substance, the Cytotoxic effects entry in series [2] (all Gb3 concentrations used, 24 hours exposure) is listed as “None of the concentrations of Gb3 used were associated with cytotoxic effects”.
